One experiment deals with Mcl-1 (Homo sapiens (Human), UniProt Q07820). In words: Fluorescence polarization anisotropy (FPA) competition assay, FITC-Bak or FITC-Bim BH3 peptide. The format is binding. To be noted: read-out: Ki for Inhibition of Mcl-1 by FPA assay.
The test system of experiment [1] is H929 human cancer cell lines. In words: Cellular viability / proliferation (Cell TiterGlo, 72 h). Format: cell-based. Put shortly: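 H929 cells plated at 1,000/well in 10% FBS medium received a 2-fold serial compound dilution (top 50 μM, DMSO <1%) 24 h later. After 72 h, viability was read by CellTiter-Glo luminescence. IC50 came from a four-parameter fit.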
Where [2] appears, read: Homo sapiens, NCI-H929, 72 h, read-out: GI50 on cellular proliferation of H929 human cancer cell lines, H929 cells, 72 h, Cell TiterGlo, 10% FBS.
[3] abbreviates: read-out: GI50 on cellular proliferation of H929 human cancer cell lines, H929 cells, 72 h, Cell TiterGlo, 10% FBS.

This note sets out measurements from patent US11596639B2, “Substituted indole Mcl-1 inhibitors” (Vanderbilt University, priority 2016, dated 2023).

Like-named read-outs stand apart in the source and are kept apart here.

Mcl-1, sequence (Q07820 172-327): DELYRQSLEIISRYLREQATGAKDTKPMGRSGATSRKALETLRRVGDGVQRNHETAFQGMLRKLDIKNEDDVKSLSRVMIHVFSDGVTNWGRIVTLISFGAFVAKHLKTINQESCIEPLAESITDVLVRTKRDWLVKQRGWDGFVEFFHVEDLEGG

For the compound `Cc1cc(N2C[C@@H](C)n3c(c(CCCOc4cc(C)c(Cl)c(C)c4)c4ccc(Cl)c(-c5c(C)ncnc5C)c43)C2=O)c2c(c1)cc(C(=O)O)n2Cc1ccccn1` [Example 296, 7-[(4R)-7-chloro-10-[3-(4-chloro-3,5-dimethyl-phenoxy)propyl]-6-(4,6-dimethylpyrimidin-5-yl)-4-methyl-1-oxo-3,4-dihydropyrazino[1,2-a]indol-2-yl]-5-methyl-1-(2-pyridylmethyl)indole-2-carboxylic acid], on Mcl-1, the Ki was under 1 nM. Also, the GI50 in experiment [1] (setting [2]) came to 240 nM.

`Cc1cc(OCCCc2c3n(c4c(-c5c(C)nn(C)c5C)c(Cl)ccc24)[C@H](C)CN(c2nc(C(=O)O)c4ccccn24)C3=O)cc(C)c1Cl` [Example 111, (R)-3-(7-chloro-10-(3-(4-chloro-3,5-dimethylphenoxy)propyl)-4-methyl-1-oxo-6-(1,3,5-trimethyl-1H-pyrazol-4-yl)-3,4-dihydropyrazino[1,2-a]indol-2(1H)-yl)imidazo[1,5-a]pyridine-1-carboxylic acid]: the Ki on Mcl-1 is under 1 nM. The GI50 in experiment [1] (setting [2]) worked out at 2600 nM.

Take `Cc1cc(OCCCc2c3n(c4c(-c5c(C)nn(C)c5C)c(Cl)ccc24)[C@H](C)CN(c2ccnc4ccc(-c5nnn(C)n5)cc24)C3=O)cc(C)c1Cl` [Example 425, (R)-7-Chloro-10-(3-(4-chloro-3,5-dimethylphenoxy)propyl)-4-methyl-2-(6-(2-methyl-2H-tetrazol-5-yl)quinolin-4-yl)-6-(1,3,5-trimethyl-1H-pyrazol-4-yl)-3,4-dihydropyrazino[1,2-a]indol-1(2H)-one]: the Ki on Mcl-1 is 1.8 nM. The GI50 in experiment [1] (setting [2]) came out at 1400 nM.

For the compound `Cc1cc(OCCCc2c3n(c4c(-c5c(C)nn(C)c5C)c(Cl)ccc24)[C@H](C)CN(c2cccc4cc(C(=O)O)[nH]c24)C3=O)cc(C)c1Cl` [Example 242, 7-[(4R)-7-chloro-10-[3-(4-chloro-3,5-dimethyl-phenoxy)propyl]-4-methyl-1-oxo-6-(1,3,5-trimethylpyrazol-4-yl)-3,4-dihydropyrazino[1,2-a]indol-2-yl]-1H-indole-2-carboxylic acid], the inhibition constant Ki on Mcl-1 was under 1 nM. For the same compound, the GI50 in experiment [1] (setting [3]) was 1300 nM.

`CC[C@@H]1Cn2c(c(CCCOc3cc(C)c(Cl)c(C)c3)c3ccc(Cl)c(-c4c(C)nn(C)c4C)c32)C(=O)N1c1cccc(C(=O)O)c1` [Example 21, (R)-3-(7-chloro-10-(3-(4-chloro-3,5-dimethylphenoxy)propyl)-3-ethyl-t-oxo-6-(1,3,5-trimethyl-1H-pyrazol-4-yl)-3,4-dihydropyrazino[1,2-a]indol-2(1H)-yl)benzoic acid]: the inhibition constant (Ki) at Mcl-1 was found to be 2.3 nM. In addition, the GI50 in experiment [1] (H929 cells, 72 h, Cell TiterGlo, 10% FBS, read-out: GI50 on cellular proliferation of H929 human cancer cell lines) came out at 4900 nM.

`Cc1cc(OCCCc2c3n(c4c(-c5c(C)nn(C)c5C)c(Cl)ccc24)[C@H](C)CN(c2nccc4cc(C(=O)O)ccc24)C3=O)cc(C)c1Cl` [Example 264, 1-[(4R)-7-chloro-10-[3-(4-chloro-3,5-dimethyl-phenoxy)propyl]-4-methyl-1-oxo-6-(1,3,5-trimethylpyrazol-4-yl)-3,4-dihydropyrazino[1,2-a]indol-2-yl]isoquinoline-6-carboxylic acid]: the Ki at Mcl-1 is under 1 nM. Further, the GI50 in experiment [1] (setting [2]) turned out to be 560 nM.

Consider `Cc1cc(OCCCc2c3n(c4c(-c5c(C)nn(C)c5C)c(Cl)ccc24)[C@H](C)CN(c2cn(C)c4ccc(-c5cnccn5)cc24)C3=O)cc(C)c1Cl` [Example 430, (R)-7-Chloro-10-(3-(4-chloro-3,5-dimethylphenoxy)propyl)-4-methyl-2-(1-methyl-5-(pyrazin-2-yl)-1H-indol-3-yl)-6-(1,3,5-trimethyl-1H-pyrazol-4-yl)-3,4-dihydropyrazino[1,2-a]indol-1(2H)-one], for which the Ki at Mcl-1 was 1.9 nM. Besides, the GI50 in experiment [1] (setting [2]) is 1400 nM.

For the compound `Cc1cc(N2C[C@@H](C)n3c(c(CCCOc4cc(C)c(Cl)c(C)c4)c4ccc(Cl)c(-c5c(C)ncnc5C)c43)C2=O)c2c(c1)cc(C(N)=O)n2Cc1ccccn1` [Example 379, (R)-7-(7-chloro-10-(3-(4-chloro-3,5-dimethylphenoxy)propyl)-6-(4,6-dimethylpyrimidin-5-yl)-4-methyl-1-oxo-3,4-dihydropyrazino[1,2-a]indol-2(1H)-yl)-5-methyl-1-(pyridin-2-ylmethyl)-1H-indole-2-carboxamide], at Mcl-1, the Ki amounted to 3.6 nM. Also, the GI50 in experiment [1] (setting [2]) was found to be 560 nM.

Regarding `Cc1cc(OCCCc2c3n(c4c(-c5c(C)nn(C)c5C)c(Cl)ccc24)[C@H](C)CN(c2cn(C)c4c(C)c(C(=O)O)ccc24)C3=O)cc(C)c1Cl` [Example 250, (R)-3-(7-Chloro-10-(3-(4-chloro-3,5-dimethylphenoxy)propyl)-4-methyl-1-oxo-6-(1,3,5-trimethyl-1H-pyrazol-4-yl)-3,4-dihydropyrazino[1,2-a]indol-2(1H)-yl)-1,7-dimethyl-1H-indole-6-carboxylic acid], the Ki at Mcl-1 was under 1 nM. Also, the GI50 in experiment [1] (setting [2]) is 480 nM.

Turning to `COCCn1cc(C(=O)O)c2c(N3C[C@@H](C)n4c(c(CCCOc5cc(C)c(Cl)c(C)c5)c5ccc(Cl)c(-c6c(C)nn(C)c6C)c54)C3=O)cccc21` [Example 181, 4-[(4R)-7-chloro-10-[3-(4-chloro-3,5-dimethyl-phenoxy)propyl]-4-methyl-1-oxo-6-(1,3,5-trimethylpyrazol-4-yl)-3,4-dihydropyrazino[1,2-a]indol-2-yl]-1-(2-methoxyethyl)indole-3-carboxylic acid], the Ki at Mcl-1 stood at 1.4 nM. The GI50 in experiment [1] (setting [2]) was 2000 nM.

For `Cc1cc(OCCCc2c3n(c4c(-c5c(C)nn(C)c5C)c(Cl)ccc24)[C@H](C)CN(c2cccc4cc(C(=O)O)oc24)C3=O)cc(C)c1Cl` [Example 194, (R)-7-(7-Chloro-10-(3-(4-chloro-3,5-dimethylphenoxy)propyl)-4-methyl-1-oxo-6-(1,3,5-trimethyl-1H-pyrazol-4-yl)-3,4-dihydropyrazino[1,2-a]indol-2(1H)-yl)benzofuran-2-carboxylic acid], the inhibition constant Ki at Mcl-1 was under 1 nM. Also, in experiment [1] (setting [2]), the GI50 amounted to 2300 nM.

`Cc1cc(OCCCc2c3n(c4c(-c5c(C)nn(C)c5C)c(Cl)ccc24)[C@H](C)CN(c2cn(C)c4ccc(C(=O)NN)cc24)C3=O)cc(C)c1Cl` [Example 366, (R)-3-(7-Chloro-10-(3-(4-chloro-3,5-dimethylphenoxy)propyl)-4-methyl-1-oxo-6-(1,3,5-trimethyl-1H-pyrazol-4-yl)-3,4-dihydropyrazino[1,2-a]indol-2(1H)-yl)-1-methyl-1H-indole-5-carbohydrazide]: the Ki at Mcl-1 worked out at 2.9 nM. For the same compound, the GI50 in experiment [1] (setting [2]) turned out to be 440 nM.

For `Cc1cc(OCCCc2c3n(c4c(-c5c(C)nn(C)c5C)c(Cl)ccc24)[C@H](C)CN(c2cccc4cc(C(=O)O)n(C)c24)C3=O)cc(C)c1Cl` [Example 178, (R)-7-(7-Chloro-10-(3-(4-chloro-3,5-dimethylphenoxy)propyl)-4-methyl-1-oxo-6-(1,3,5-trimethyl-1H-pyrazol-4-yl)-3,4-dihydropyrazino[1,2-a]indol-2(1H)-yl)-1-methyl-1H-indole-2-carboxylic acid], the Ki on Mcl-1 is under 1 nM. Further, the GI50 in experiment [1] (setting [2]) is under 200 nM.

`COc1ccc(N2C[C@@H](C)n3c(c(CCCOc4cc(C)c(Cl)c(C)c4)c4ccc(Cl)c(-c5c(C)nn(C)c5C)c43)C2=O)c2c1cc(C(N)=O)n2C` [Example 412, (R)-7-(7-Chloro-10-(3-(4-chloro-3,5-dimethylphenoxy)propyl)-4-methyl-1-oxo-6-(1,3,5-trimethyl-1H-pyrazol-4-yl)-3,4-dihydropyrazino[1,2-a]indol-2(1H)-yl)-4-methoxy-1-methyl-1H-indole-2-carboxamide]: the Ki on Mcl-1 came to 1.3 nM. Also, in experiment [1] (setting [2]), the GI50 was found to be 450 nM.

For the compound `Cc1cc(OCCCc2c3n(c4c(-c5c(C)nn(C)c5C)c(Cl)ccc24)[C@H](C)CN(c2cccc4c(C(=O)O)cn(Cc5ccccn5)c24)C3=O)cc(C)c1Cl` [Example 468, (R)-7-(7-Chloro-10-(3-(4-chloro-3,5-dimethylphenoxy)propyl)-4-methyl-1-oxo-6-(1,3,5-trimethyl-1H-pyrazol-4-yl)-3,4-dihydropyrazino[1,2-a]indol-2(1H)-yl)-1-(pyridin-2-ylmethyl)-1H-indole-3-carboxylic acid], the Ki on Mcl-1 is under 1 nM. Moreover, in experiment [1] (setting [2]), the GI50 amounted to 260 nM.

With `Cc1cc(OCCCc2c3n(c4c(-c5c(C)ncnc5C)c(Cl)ccc24)CCCN(c2ccc(C(=O)O)c4ncccc24)C3=O)cc(C)c1Cl` [Example 147, 5-[8-Chloro-11-[3-(4-chloro-3,5-dimethyl-phenoxy)propyl]-7-(4,6-dimethylpyrimidin-5-yl)-1-oxo-4,5-dihydro-3H-[1,4]diazepino[1,2-a]indol-2-yl]quinoline-8-carboxylic acid], the Ki at Mcl-1 amounted to 1.8 nM. Also, the GI50 in experiment [1] (setting [2]) is 4300 nM.

In the case of `Cc1cc(OCCCc2c3n(c4c(-c5c(C)nn(C)c5C)c(Cl)ccc24)[C@H](C)CN(c2cc(OCCN4CCN(C)CC4)cc4cc(C(=O)O)n(C)c24)C3=O)cc(C)c1Cl` [Example 453, (R)-7-(7-Chloro-10-(3-(4-chloro-3,5-dimethylphenoxy)propyl)-4-methyl-1-oxo-6-(1,3,5-trimethyl-1H-pyrazol-4-yl)-3,4-dihydropyrazino[1,2-a]indol-2(1H)-yl)-1-methyl-5-(2-(4-methylpiperazin-1-yl)ethoxy)-1H-indole-2-carboxylic acid], at Mcl-1, the Ki was 1.7 nM. For the same compound, the GI50 in experiment [1] (setting [2]) came to 330 nM.

As for `Cc1cc(OCCCc2c3n(c4c(-c5c(C)nn(C)c5C)c(Cl)ccc24)[C@H](C)CN(c2cccc4nn(C)c(C(=O)O)c24)C3=O)cc(C)c1Cl` [Example 133, 4-[(4R)-7-chloro-10-[3-(4-chloro-3,5-dimethyl-phenoxy)propyl]-4-methyl-1-oxo-6-(1,3,5-trimethylpyrazol-4-yl)-3,4-dihydropyrazino[1,2-a]indol-2-yl]-2-methyl-indazole-3-carboxylic acid], the inhibitory constant (Ki) at Mcl-1 is under 1 nM. For the same compound, in experiment [1] (setting [3]), the GI50 came out at 1400 nM.
